Experimental data from US11472838B2, “Inhibitors of blood coagulation factor XIII” (Zedira GmbH, priority 2018, dated 2022).
Where two headings read alike, the source gives them in different places. *1 amine or outer side, *2 acyl side, *3 side chain or, on linkers, in order; H or OH if unused. Where a SMILES comes first, the peptide text is derived from it. [ ]: non-standard residue; d: D form. The star is where a group is joined. ξ: configuration not given here. Benzoyl(3-COOH,5-NO2) = O=C(O)c1cc(C(=O)*)cc([N+](=O)[O-])c1; Pro(3R,4S-CMe2) = CC1(C)[C@@H]2[C@@H](C(=O)O)NC[C@@H]21; Benzoyl(2-COOH-4,5-Cl2) = O=C(O)c1cc(Cl)c(Cl)cc1C(=O)*; Pro(3S,4R-(CH2)3) = O=C(O)[C@H]1NC[C@@H]2CCC[C@@H]21; Nle(5E-ene,6-CO2Et) = CCOC(=O)/C=C/CC[C@H](N)C(=O)O; Isonicotinoyl(3-COOH) = O=C(O)c1cnccc1C(=O)*; X1 = COC(=O)/C=C/CC[C@H](N[*:1])C(=O)[*:2]; X8 = NC(=O)/C=C/CC[C@H](N[*:1])C(=O)[*:2]; Pro(4-methylene) = C=C1CN[C@H](C(=O)O)C1; Morpholine(3S-CO) = O=C(O)[C@@H]1COCCN1; X3 = O=C(c1cnc(O)c([N+](=O)[O-])c1)*; Pro(4-oxo) = O=C1CN[C@H](C(=O)O)C1; Ala(cPr) = N[C@@H](CC1CC1)C(=O)O; Thr(3ξ) = CC(O)[C@H](N)C(=O)O; Chg = N[C@H](C(=O)O)C1CCCCC1; Tle = CC(C)(C)[C@H](N)C(=O)O; X7 = O=C(O)c1nccnc1C(=O)*; Nle = CCCC[C@H](N)C(=O)O; ξV = CC(C)C(N)C(=O)O; Alloc = C=CCOC(=O)*

How the values were obtained:
in vitro = conditions: for recovery in plasma determined by HPLC: 37° C., over a period of 2 hours; for recovery in plasma determined by HPLC / half-life: plasma
Experimental: Further, the stability of compounds in plasma was determined as prerequisite for drug-likeness. Briefly, after spiking the chemical entities, the plasma was incubated at 37° C. At certain time points (e.g. at 15 and 120 minutes), 3 vol. cold MeOH were added to extract the compounds. After centrifugation, the supernatant was analyzed by HPLC. The half life was calculated based on the respective calibration curve.

TG2 = TG2 (Homo sapiens (Human), UniProt P21980); experiment: Inhibitory activity against TG2 (isopeptidase assay), Tables 3 and 4; format: biochemical; conditions: for Selectivity: TG2 versus FXIII
whole human blood = experiment: Thromboelastometry (ROTEM) in whole human blood with t-PA; format: cell-based
Experimental: Clotting time (CT), clot formation time (CFT), maximum clot firmness (MCF) and lysis index at 60 min (LI60) were obtained using fresh whole blood in the ROTEM® delta device according to the manufacturer's instructions.

FXIII = FXIII (Homo sapiens (Human), UniProt P00488); experiment: Inhibitory activity against FXIII (isopeptidase assay), Tables 3 and 4; format: biochemical;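 further: FXIIIa activity read with a peptide substrate derived from the α2-antiplasmin N-terminal dodecapeptide, FXIII activated beforehand at room temperature, inhibitor-free wells with DMSO buffer as control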
[1] = isopeptidase assay, Table 3, read-out: IC50 [nM] TG2
[2] = isopeptidase assay, Table 3, read-out: IC50 [nM] FXIII

Chain of FXIII (P00488 39-732): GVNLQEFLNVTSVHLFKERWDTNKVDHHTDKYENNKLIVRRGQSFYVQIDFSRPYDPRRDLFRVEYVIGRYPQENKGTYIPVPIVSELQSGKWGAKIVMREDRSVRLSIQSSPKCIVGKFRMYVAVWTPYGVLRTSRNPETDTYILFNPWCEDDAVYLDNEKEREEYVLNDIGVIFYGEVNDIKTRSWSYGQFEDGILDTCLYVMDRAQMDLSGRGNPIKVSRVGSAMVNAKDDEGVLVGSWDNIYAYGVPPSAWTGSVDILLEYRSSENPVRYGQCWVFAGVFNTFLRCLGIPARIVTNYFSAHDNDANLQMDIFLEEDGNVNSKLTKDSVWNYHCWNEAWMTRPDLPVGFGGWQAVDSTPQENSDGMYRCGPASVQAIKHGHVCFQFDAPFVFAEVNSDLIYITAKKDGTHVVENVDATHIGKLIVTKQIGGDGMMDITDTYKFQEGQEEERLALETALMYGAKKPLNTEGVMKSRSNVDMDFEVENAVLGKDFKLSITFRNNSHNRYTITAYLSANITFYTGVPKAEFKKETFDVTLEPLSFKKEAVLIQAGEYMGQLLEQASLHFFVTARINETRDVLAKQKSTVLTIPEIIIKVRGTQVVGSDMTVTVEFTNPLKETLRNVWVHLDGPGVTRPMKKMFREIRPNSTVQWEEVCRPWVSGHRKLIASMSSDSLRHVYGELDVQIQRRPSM
Chain of TG2 (P21980 whole entry): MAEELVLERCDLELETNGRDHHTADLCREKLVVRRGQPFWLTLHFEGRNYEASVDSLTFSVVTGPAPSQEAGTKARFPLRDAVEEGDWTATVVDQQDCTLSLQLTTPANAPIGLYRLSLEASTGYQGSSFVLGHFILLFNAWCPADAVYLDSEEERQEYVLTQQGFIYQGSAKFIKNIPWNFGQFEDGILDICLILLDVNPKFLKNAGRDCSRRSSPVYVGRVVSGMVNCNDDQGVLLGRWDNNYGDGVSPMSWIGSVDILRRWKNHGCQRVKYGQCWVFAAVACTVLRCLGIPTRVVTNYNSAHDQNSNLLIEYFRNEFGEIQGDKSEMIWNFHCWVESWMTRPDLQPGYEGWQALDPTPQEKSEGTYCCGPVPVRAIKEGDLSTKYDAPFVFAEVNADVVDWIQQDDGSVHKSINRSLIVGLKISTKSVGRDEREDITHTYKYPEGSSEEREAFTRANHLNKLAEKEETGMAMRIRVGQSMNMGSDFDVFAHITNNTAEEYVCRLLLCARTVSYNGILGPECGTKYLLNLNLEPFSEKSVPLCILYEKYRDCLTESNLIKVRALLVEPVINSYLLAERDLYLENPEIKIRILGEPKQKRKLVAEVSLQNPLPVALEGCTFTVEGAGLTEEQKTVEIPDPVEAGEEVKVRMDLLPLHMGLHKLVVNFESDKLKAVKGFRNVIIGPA

SMILES	recovery at 2 h (in vitro)	Selectivity (TG2; Table 4)	IC50 (TG2; Table 4, read-out: TG2 IC50)	IC50 (FXIII; Table 4, read-out: FXIII IC50)	half-life (in vitro)	increase in clot lysis at 60 minutes compared to control (LI60c) (whole human blood)	recovery in plasma determined by HPLC (in vitro)	Selectivity (TG2; isopeptidase assay, Table 3)	IC50 (TG2; [1])	IC50 (FXIII; [2])
C=C1C[C@@H](C(=O)N[C@@H](CC(C)C)C(=O)N2CCC[C@H]2C(=O)O)N(C(=O)[C@@H](NC(=O)[C@H](CC/C=C/C(=O)OC)NC(=O)c2cc(C(=O)O)cc([N+](=O)[O-])c2)C(C)(C)C)C1 [Compound 43] ({Benzoyl(3-COOH,5-NO2)}-[X1][Tle][Pro(4-methylene)]LP-OH)	> 75%	5.42	856 nM	158 nM	–	14%	–	–	–	–
COC(=O)/C=C/CC[C@H](NC(=O)c1ccncc1C(=O)O)C(=O)N[C@@H](CCSC)C(=O)N1CC(=O)C[C@H]1C(=O)N[C@H](C(=O)N[C@H](C(N)=O)C1CCCCC1)C1CCCCC1 [37a/b] ({Isonicotinoyl(3-COOH)}-[X1]M[Pro(4-oxo)][Chg][Chg]-NH2)	–	–	–	–	–	–	> 75%	4.7	324 nM	69 nM
CC(C)(C)[C@H](NC(=O)[C@H](CC/C=C/C(N)=O)NC(=O)c1ccncc1C(=O)O)C(=O)N1CC(=O)C[C@H]1C(=O)N[C@H](C(=O)N[C@H](C(N)=O)C1CCCCC1)C1CCCCC1 [15a/b] ({Isonicotinoyl(3-COOH)}-[X8][Tle][Pro(4-oxo)][Chg][Chg]-NH2)	–	–	–	–	–	–	> 75%	7.0	483 nM	69 nM
COC(=O)/C=C/CC[C@H](NC(=O)c1cnc(O)c([N+](=O)[O-])c1)C(=O)N[C@H](C(=O)N1C[C@@H]2CCC[C@@H]2[C@H]1C(=O)N[C@H](C(=O)N[C@H](C(N)=O)C1CCCCC1)C1CCCCC1)C(C)(C)C [Compound 28] (X3-[X1][Tle][Pro(3S,4R-(CH2)3)][Chg][Chg]-NH2)	> 75%	–	–	–	–	–	–	1.1	41 nM	36 nM
CCCC[C@H](NC(=O)[C@H](CC/C=C/C(=O)OC)NC(=O)[C@@H](CC(=O)O)NC(C)=O)C(=O)N[C@@H](CCCC)C(=O)N[C@@H](CC(C)C)C(=O)N1CCC[C@H]1C(=O)N[C@@H](Cc1c[nH]c2ccccc12)C(=O)O [Ref. 13, reference compound] (Ac-[dD][X1][Nle][Nle]LPW-OH)	–	6.02	2800 nM	465 nM	< 15 min	–	–	–	–	–
CNC(=O)[C@@H](NC(=O)[C@@H](NC(=O)[C@@H]1CC(=O)CN1C(=O)[C@@H](NC(=O)[C@H](CC/C=C/C(=O)OC)NC(=O)c1ccncc1C(=O)O)C(C)(C)C)C1CCCCC1)C1CCCCC1 [36a/b] ({Isonicotinoyl(3-COOH)}-[X1][Tle][Pro(4-oxo)][Chg][Chg]-NHMe)	–	–	–	–	–	–	> 75%	4.1	168 nM	41 nM
C=CCOC(=O)NCCCC[C@H](NC(=O)[C@H](CC(C)C)NC(=O)[C@H](CC(C)C)NC(=O)[C@@H](NC(=O)[C@H](CC(C)C)NC(=O)[C@@H]1CCCN1C(=O)[C@H](CO)NC(=O)C(NC(=O)[C@H](CCC(N)=O)NC(=O)[C@H](CCC(=O)O)NC(=O)[C@H](CC/C=C/C(=O)OC)NC(=O)[C@H](CC(N)=O)NC(C)=O)C(C)C)C(C)O)C(=O)O (some centres unmarked) [Ref. 24, reference compound] (Ac-N[X1]EQ[ξV]SPL[Thr(3ξ)]LLK(Alloc)-OH)	–	0.55	169 nM	306 nM	< 15 min	–	–	–	–	–
COC(=O)/C=C/CC[C@H](NC(=O)c1nccnc1C(=O)O)C(=O)N[C@H](C(=O)N1CC(=O)C[C@H]1C(=O)N[C@H](C(=O)N[C@H](C(N)=O)C1CCCCC1)C1CCCCC1)C(C)(C)C [Compound 3] (X7-[X1][Tle][Pro(4-oxo)][Chg][Chg]-NH2)	> 75%	–	–	–	–	–	–	0.8	16 nM	20 nM
COC(=O)/C=C/CC[C@H](NC(=O)c1ccncc1C(=O)O)C(=O)N[C@H](C(=O)N1CC(=O)C[C@H]1C(=O)N[C@H](C(=O)N[C@H](C(=O)OC)C1CCCCC1)C1CCCCC1)C(C)(C)C [35a/b] ({Isonicotinoyl(3-COOH)}-[X1][Tle][Pro(4-oxo)][Chg][Chg]-OMe)	–	–	–	–	–	–	> 75%	2.3	198 nM	86 nM
COC(=O)/C=C/CC[C@H](NC(=O)c1ccncc1C(=O)O)C(=O)N[C@H](C(=O)N1CC(=O)C[C@H]1C(=O)N[C@H](C(=O)N[C@H](C(=O)O)C1CCCCC1)C1CCCCC1)C(C)(C)C [34a/b] ({Isonicotinoyl(3-COOH)}-[X1][Tle][Pro(4-oxo)][Chg][Chg]-OH)	–	–	–	–	–	–	> 75%	2.7	356 nM	123 nM

More lines, main results first:

recovery at 2 h (in vitro)	Selectivity (TG2; Table 4)	IC50 (TG2; Table 4, read-out: TG2 IC50)	IC50 (FXIII; Table 4, read-out: FXIII IC50)	half-life (in vitro)	SMILES	increase in clot lysis at 60 minutes compared to control (LI60c) (whole human blood)	recovery in plasma determined by HPLC (in vitro)	Selectivity (TG2; isopeptidase assay, Table 3)	IC50 (TG2; [1])	IC50 (FXIII; [2])
> 75%	5.66	798 nM	141 nM	–	COC(=O)/C=C/CC[C@H](NC(=O)[C@@H]1CC(=O)CN1)C(=O)N[C@@H](CC1CC1)C(=O)N1CCOC[C@H]1C(=O)N[C@@H](CC(C)C)C(=O)N1CCC[C@H]1C(=O)O [Compound 44] (H-[Pro(4-oxo)][X1][Ala(cPr)][Morpholine(3S-CO)]LP-OH)	11%	–	–	–	–
> 75%	–	–	–	–	COC(=O)/C=C/CC[C@H](NC(=O)c1cnc(O)c([N+](=O)[O-])c1)C(=O)N[C@H](C(=O)N1CC(=O)C[C@H]1C(=O)N[C@H](C(=O)N[C@H](C(N)=O)C1CCCCC1)C1CCCCC1)C(C)(C)C [Compound 6] (X3-[X1][Tle][Pro(4-oxo)][Chg][Chg]-NH2)	–	–	0.7	12 nM	17 nM
–	–	2150 nM	> 10 nM	< 15 min	CCCC[C@H](NC(=O)[C@H](CC/C=C/C(=O)OC)NC(=O)[C@@H](CC(=O)O)NC(C)=O)C(=O)N[C@@H](CCCC)C(=O)N[C@@H](CC(C)C)C(=O)N1CCC[C@H]1C(=O)O [Ref. 14, reference compound] (Ac-[dD][X1][Nle][Nle]LP-OH)	–	–	–	–	–
–	26.54	2920 nM	110 nM	< 15 min	CCCC[C@H](NC(=O)[C@H](CC/C=C/C(=O)OC)NC(=O)[C@@H](CC(=O)O)NC(C)=O)C(=O)N[C@@H](CCCC)C(=O)N[C@@H](CC(C)C)C(=O)N1CCC[C@H]1C(=O)N[C@@H](Cc1c[nH]c2ccccc12)C(=O)N1CCC[C@H]1C(=O)O [Ref. 22, reference compound] (Ac-[dD][X1][Nle][Nle]LPWP-OH)	–	–	–	–	–
> 75%	16.17	760 nM	47 nM	–	CCOC(=O)/C=C/CC[C@H](NC(=O)c1cc(Cl)c(Cl)cc1C(=O)O)C(=O)N[C@H](C(=O)N1CCC[C@H]1C(=O)N[C@@H](CC(C)C)C(=O)N[C@H](C(N)=O)C1CCCCC1)C(C)C [Compound 38] ({Benzoyl(2-COOH-4,5-Cl2)}-[Nle(5E-ene,6-CO2Et)]VPL[Chg]-NH2)	–	–	–	–	–
> 75%	–	–	–	–	COC(=O)/C=C/CC[C@H](NC(=O)c1cc(Cl)c(Cl)cc1C(=O)O)C(=O)N[C@H](C(=O)N1C[C@H]2[C@@H]([C@H]1C(=O)N[C@H](C(=O)N[C@H](C(N)=O)C1CCCCC1)C1CCCCC1)C2(C)C)C(C)(C)C [Compound 29] ({Benzoyl(2-COOH-4,5-Cl2)}-[X1][Tle][Pro(3R,4S-CMe2)][Chg][Chg]-NH2)	–	–	1.3	32 nM	24 nM
